Like-named read-outs stand apart in the source and are kept apart here. Where no end group is shown, it is not given here.
What was measured:
Herz antibody [1] = assay: Binding affinity of fluorescein-labelled receptor to surface-bound peptide, confocal fluorescence intensity at varying receptor concentrations
Source text: At step 104 the array or arrays of polymers are exposed to a receptor at a first solution concentration [R]1. According to some embodiments the receptor is marked with an appropriate label such as a fluorescein tag. Fluorescent tags are preferred because the measurements herein are usually taken with a receptor solution in contact with the immobilized ligands to ensure that the immobilized ligand are in equilibrium with the receptor. […] Confocal microscopy provides one preferred method of distinguishing between surface receptor fluorescence and background fluorescence from bulk solution receptors, due to the limited depth of field of a confocal microscope. Because the microscope cannot completely exclude fluorescence from bulk solution, contributions of the bulk fluorescence can be eliminated by comparing areas of derivatized and underivatized substrates. This method for eliminating background fluorescence may not be accurate at high receptor concentrations, when non-specific receptor binding to underivatized substrates becomes non-negligible.
At step 106 the array of the polymers is exposed to the receptor, for a time sufficient to allow receptor-ligand interaction, preferably to equilibrium conditions, and at step 108 the fluorescence intensity of the receptor at each of the concentrations [R]n is determined for each of the ligands on each array. […]
At step 110 this information is fit to analysis equations or otherwise processed for determination of the binding affinity of the receptor to the various ligands on the substrate and at step 112 the Kd values, among others, are extracted. In a most preferred embodiment the data are used to determine binding affinity by determining the slope of a best fit line through a plot having, on the y-axis, the ratio of fluorescence intensity to receptor concentration and, on the x-axis, the fluorescence intensity. […] To faciltate comparison to other experiments, one can plot normalized fluorescence intensity on the y axis or receptor concentration on the x axis. […]

Herz antibody [2] = conditions: solution, comparison value, cited from earlier work

**Q.** For YGGFL, which “binding affinity by interpolating plot of relative fluorescence intensity vs log10 receptor concentration (FIG. 5)” value (Herz antibody [1]; interpolated between 10^-8 M and 10^-9 M curves, peptide synthesized as free peptide then immobilized on surface) is on record?
**A.** about 1.8×10^-8 M

**Q.** And the “Kd from slope of best fit line, ratio of fluorescence intensity to receptor concentration vs fluorescence intensity (FIG. 4)” value (Herz antibody [1]; peptide synthesized on substrate, equilibrium over about 24 hours, non-derivatized substrate background subtracted)?
**A.** 18 nM

**Q.** And the Kd (Herz antibody [2]; read-out: Kd value from other solution experiments)?
**A.** 10 nM

**Q.** With YGTFL (not fully specified) as the substance, how does the Kd (Herz antibody [1]; sequences synthesized on different chips, exposed to Herz antibody, read-out: Kd / binding affinity from isotherms (FIG. 6)) read?
**A.** ~700 nM

**Q.** And the Kd (Herz antibody [2]; read-out: binding affinity value from other solution experiments)?
**A.** 500 nM

Reference: patent US5324633A, “Method and apparatus for measuring binding affinity” (Affymax Technologies N.V., priority 1991, dated 1994)
